Here are results for ten molecules from patent US6451618B2, “Test for detecting substances which alter the conformational structure of zinc fingers” (priority 1997, dated 2002).

Where two headings read alike, the source gives them in different places.

Assay [1] deals with estrogen receptor (ER). The settings on record: hormone-bound estrogen receptor; cited from earlier work.
Assay [2] has as its system estrogen receptor (ER). The note with it: cited from earlier work.
Assay [3] concerns the target T1, TFIIIA (Xenopus laevis, UniProt P03001). Type of assay: binding. Also noted: Immature ovarian tissue was dissected from 4-5 cm female X. laevis frogs; from tissue; host or cells: immature ovarian tissue (oocytes) of Xenopus laevis; 7S particles, 5S RNA removed with RNase A. The note with it: for concentration giving complete inhibition of TFIIIA binding: complete loss of DNase I protection and hypersensitivity; for TFIIIA zinc finger affected by xenobiotic: general statement; for concentration at which TFIIIA binding to the 5S RNA gene is inhibited: loss of DNase I protection, nucleotides +43 to +96, TFIIIA preincubated with metal; for reversibility of inhibition of TFIIIA binding: not overcome by added zinc ions; for inhibition of TFIIIA-5S RNA gene interaction: 10 μM, data not shown. The method, then:
Inhibition of TFIIIA binding to the 5S ribosomal RNA gene was assayed by the DNase I protection method. In this assay, TFIIIA isolated from frogs, or as a recombinant protein, was incubated for a short period of time with a radioactively labeled double-stranded DNA fragment containing the 5S ribosomal RNA gene sequence (120 base-pairs in length). In TFIIIA's role in regulating ribosome synthesis, the protein birds specifically and tightly to this 5S gene sequence. When this occurs, the bound protein protects a large region of the 5S RNA gene from DNase I digestion. DNase I normally degrades the 5S gene and in the process generates a series of differently sized DNA fragments which can be resolved by electrophoresis. TFIIIA binding protects a DNA region comprising approximately 53 base pairs from DNase I degradation.
Cadmium and aluminum inhibition of TFIIIA binding was ascertained by observing the loss of this protected region from 5S gene nucleotides (+43 to +96).
The end-labeled fragment was ethanol precipitated, redigested with BamHI and the smaller fragment was purified by PAGE. Specific activity of the fragment was determined by absorbance at 260 nm and Cerenkov counting. To examine the effects of various metals on the TFIIIA-5S RNA gene interaction TFIIIA (10 nM) was incubated with the various metals (chloride salts of all metals were ultrapure grade and purchased from Aldrich; concentrations are indicated in the figure legends) in 20 mM Tris-HCl, pH 7.6, 70 mM NH4Cl, 7 mM MgCl2, 0.4 mM DTT and 0.1% NP-40 for 10 min prior to addition of the DNA fragment containing the end-labeled 5S RNA gene (1 nM). After addition of DNA the reaction (20 μl ) was incubated at room temperature for an additional 15 min. The reactions were then incubated for an additional 1 min in DNase I (2 μg/ml final concentration) and digestion was terminated by addition of 100 μl stop buffer (20 mM Tris-HCl, pH 7.6, 1 mM EDTA, 0.1% SDS, 30 μg/ml sonicated salmon sperm DNA). […] Gel autoradiography was performed overnight at −70° C. with Kodak XAR-5 film and a Dupont Cronex intensifying screen.
Target sequence in this assay (P03001 23-366): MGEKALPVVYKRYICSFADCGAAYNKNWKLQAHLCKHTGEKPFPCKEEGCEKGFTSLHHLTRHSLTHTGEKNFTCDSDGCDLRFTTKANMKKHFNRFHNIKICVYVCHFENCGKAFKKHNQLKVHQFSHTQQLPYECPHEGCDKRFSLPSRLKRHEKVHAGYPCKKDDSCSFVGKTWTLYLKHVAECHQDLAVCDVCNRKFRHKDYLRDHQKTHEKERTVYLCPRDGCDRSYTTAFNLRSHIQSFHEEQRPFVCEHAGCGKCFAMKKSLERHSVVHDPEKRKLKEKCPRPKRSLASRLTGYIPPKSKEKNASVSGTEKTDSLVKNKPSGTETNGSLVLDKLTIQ

Assay [4] addresses T1, TFIIIA. In words: TFIIIA-dependent DNA renaturation assay. Also on record: Immature ovarian tissue was dissected from 4-5 cm female X. laevis frogs; from tissue; host or cells: immature ovarian tissue (oocytes) of Xenopus laevis; 7S particles, 5S RNA removed with RNase A. In kind it is biochemical.
Target sequence in this assay (P03001 23-366): as above
Description: DNA migration in the Tris-phosphate agarose gel electrophoresis system used in the DNA renaturation assay is sensitive to some types of DNA structural changes. This assay is useful in this study because it can detect structural changes in the nanomolar DNA concentration range.
DNA renaturation (hybridization of complementary single-stranded DNA) was assayed by binding 20 nM Xenopus TFIIIA to 2 nM heat-denatured ^32P labeled 5S gene DNA for 15 min. Reactions are terminated by detergent and electrophoresed on an agarose gel which resolves the slower migrating single-stranded DNA (s.s.) from the faster migrating double-stranded DNA (d.s.) DNA bands are visualized by autoradiography. […] DNA migration in the absence and presence of cadmium.
TFIIIA isolation, ^32P-end-labeling of the 5S RNA gene, denaturation and renaturation reactions, Tris-phosphate agarose gel electrophoresis and autoradiography were performed as described above in the methodology section herein. […]
Assay [5] concerns the target T1, TFIIIA. The settings on record: excitation 360 nanometers. The method, then: Zinc is then removed from TFIIIA (- ZINC sample) by incubation with the zinc chelator, ethylenediamine tetraacetic acid (EDTA). Relative emission fluorescent intensity spectra of the TFIIIA-bound AEDANS probe are recorded using an excitation wavelength of 360 nanometers.
Target sequence in this assay (P03001 23-366 limits assumed): as the sequence (P03001 23-366) above

As for `[Cl][Cd][Cl]` [Cd^2+, CdCl2], in assay [1], the “concentration inhibiting DNA binding by activated receptors” value is 1 mM. Also, the “concentration inhibiting initial binding of hormone to receptor” value in assay [2] is listed as 0.1 mM. Also, in assay [3] (0.1 μM Cd2+ for TFIIIA), the “in vitro inhibitory concentration relative to serum concentration in moderate to heavy smokers” value is “approximately 5 fold”. In assay [3] (at 0.1 μM Cd2+), the “inhibitory molecules of metal ion per TFIIIA molecule” value was < 10 molecules per TFIIIA molecule. In assay [3], the “concentration giving complete inhibition of TFIIIA binding” value was found to be 0.25 µM, the “TFIIIA zinc finger affected by xenobiotic” value (“TFIIIA zinc finger affected” for short) is “affected”, the “concentration at which TFIIIA binding to the 5S RNA gene is inhibited” value (shortened to “concentration … to the 5S RNA gene is inhibited”) was 0.1 µM and the “reversibility of inhibition of TFIIIA binding” value was “irreversible”. Besides, in assay [4] (TFIIIA 10, 20 or 30 nM preincubated with 1 μM CdCl2), the “inhibition of TFIIIA-dependent DNA renaturation” value is recorded as “inhibition of DNA renaturation”.
With `[Cl][Pb][Cl]` [PbCl2], in assay [3], the “TFIIIA zinc finger affected” value is listed as “affected” and the “concentration … to the 5S RNA gene is inhibited” value was at least 10 µM.
The like results for `O=[Se]([O-])[O-].[Na+].[Na+]` [Na2SeO3] were, in that order, “affected” and at least 25 µM.
Take `[AsH3]` [Arsenic, NaH2AsO4]: the “inhibition of TFIIIA zinc finger binding to DNA” value in assay [3] (preincubated with 0.1, 0.5 or 1.0 mM NaH2AsO4) was “does not inhibit”.
On to `[Cl][Al]([Cl])[Cl]` [Al^3+, AlCl3], for which the “inhibitory concentration relative to that for Cd2+” value in assay [3] (Al3+ versus Cd2+) is “about 50 fold”. Besides, in assay [3] (FIG. lane 3), the “concentration giving slight inhibition of TFIIIA binding” value came out at 1 µM. In addition, in assay [3], the “concentration giving complete inhibition of TFIIIA binding” value is 5 to 7 µM, the “TFIIIA zinc finger affected” value is recorded as “affected”, the “concentration … to the 5S RNA gene is inhibited” value came to 3 µM and the “reversibility of inhibition of TFIIIA binding” value is “irreversible”. Besides, the “inhibition of TFIIIA-dependent DNA renaturation” value in assay [4] (TFIIIA preincubated with 50 μM AlCl3 (panel B)) is listed as “Inhibition of TFIIIA-dependent renaturation”.
On to `[Cl-].[Cs+]` [Cs^2+], for which, in assay [3], the “inhibition of TFIIIA-5S RNA gene interaction” value is given as “non-inhibitory” and the “TFIIIA zinc finger affected” value is reported as “not”.
As to HgCl2 [Mercury], in assay [3], the “TFIIIA zinc finger affected” value is given as “not”. Further, the “inhibition of TFIIIA zinc finger binding to DNA” value in assay [3] (preincubated in 5, 10, 15, 20 μM HgCl2) is reported as “does not inhibit”.
On to `O=C(O)CN(CCN(CC(=O)O)CC(=O)O)CC(=O)O` [EDTA, ethylenediamine tetraacetic acid], for which the “emission wavelength after zinc removal” value in assay [5] (blue shift from 485 nanometers) is listed as 478 nanometers. The “increase of emission fluorescence intensity” value in assay [5] (zinc removed from TFIIIA by EDTA) turned out to be 25%.
Regarding `[Cl][Mn][Cl]` [Mn^2+], in assay [3], the “inhibition of TFIIIA-5S RNA gene interaction” value is listed as “non-inhibitory” and the “TFIIIA zinc finger affected” value is “not”.
On to `[Cl-].[Cl-].[Mg+2]` [Mg^2+], for which the “inhibition of TFIIIA-5S RNA gene interaction” value in assay [3] is on record as “non-inhibitory”.
